Patent US20110262544A1, “OPHTHALMIC ADMINISTRATION OF A COMPOSITION INCLUDING BRIMONIDINE AS A MIST” (PHARMALIGHT INC., priority 2008, published 2011)

Key:
[1] = tested on: albino New Zealand white rabbits; conditions: conclusion from retinal blood flow in rabbits
Protocol: Retinal blood flow rate in the major temporal vein in the right eye of albino New Zealand white rabbits is measured at pre-administration baseline, as well as post-administration of Alphagan® P as drops, post-administration of a composition comprising brimonidine and a penetration enhancer as a mist, and post-administration of a composition in accordance with the principles of the present invention comprising brimonidine or a salt thereof and being devoid of a penetration enhancer as a mist. […] In this instrument, the measuring laser beam is locked onto the target blood vessel during eye movements through an eye-tracking feedback and control system. Doppler-shifted laser light scattered from a retinal vessel is analyzed to determine centerline blood velocity.
Venous blood flow, which is known to be directly correlated to arterial blood flow, is measured, since retinal veins have a larger diameter than retinal arteries, facilitating better locking of the measuring laser beams onto the target vessel. […]
The beam from a red 675-nm diode laser is used for velocity measurement, emitted from a fundus camera-like measuring head. The Doppler-shifted light scattered from the flowing blood cells in the target vessel is detected simultaneously in two directions, separated by a fixed angle. […]
Following administration of the composition, the blood flow velocity in the same veins is measured.

Glaucoma patients = conditions: normal tension glaucoma patients; cited from earlier work

| Compound | efficacy compared between ways of administration or compositions [1] | maintenance of retinal blood flow homeostasis with changes in posture (Glaucoma patients) |
| --- | --- | --- |
| Brc1c(NC2=NCCN2)ccc2nccnc12 [brimonidine, 5-Bromo-N-(4,5-dihydro-1H-imidazol-2-yl) quinoxalin-6-amine] | as effective as administration in the form of eye-drops | maintained retinal blood flow homeostasis |
| CC(C)OC(=O)CCC/C=C\C[C@@H]1[C@@H](CC[C@@H](O)CCc2ccccc2)[C@H](O)C[C@@H]1O [latanoprost] |  | not |
